Tests used:
[1] = system: Dkk1 and Bmp expression in limb buds; test: sqRT-PCR and whole mount in situ hybridization of Dkk1 and Bmp expression in limb buds; type: in vivo, chicken
Description: (§1) RNA isolation, semi-quantitative RT-PCRs and whole mount in situ hybridizations were performed according to standard protocols that are well known within the art. RNA was isolated using TRIZOL (Gibco BRL) followed by DNAseI digestion. First strand synthesis was carried out with the Expand RT System (Roche) according to the manufacturer's instructions. PCR amplification was carried out primers and conditions within the knowledge of a person having skill in the relevant art. Quantifications were performed using NIH Image 1.62.

[2] = system: human embryonic fibroblasts (HEFs); test: Cell death by trypan blue staining in HEFs; type: cell-based
Description: (§2) Primary limb bud cells (PLBCs) were isolated from 60 pooled wing and hindlimb buds of HH stages 23/24 embryos. Fibroblasts were gained from HH stage 34 chicken embryos or from 13.5 d.p.c. mouse embryos. Human embryonic fibroblasts were provided by Matthias Maass (2). Before adding reagents, all cell types were cultured for 16 hours in D-MEM (Gibco) plus 10% fetal calf serum (FCS) and 2% chicken serum. Treatment with thalidomide, phthalimide, recombinant human (rh) BMP4 (300 ng/ml; R&D Systems), juglone (5 μM; Sigma), recombinant mouse Noggin (30, 300, 1000 ng/ml in FIG. 4B; 300 ng/ml in FIGS. 4C and 6A), anti-human-DKK1 antibody (35, 350 and 1000 ng/ml in FIG. 4B; 350 ng/ml in FIGS. 4C and 6A), LiCl (3, 30, 60 mM in FIG. 4B; 30 mM in FIGS. 4C, 6A and 6C) and/or (2Z,3E)-6-Bromoindirubin-3-oxime (BIO, Gsk3-Inhibitor IX; 50, 500, 1000 nM in FIG. 4B; 500 nM in FIG. 6A; 50 and 500 nM in FIG. 6C; Calbiochem) were performed in Optimem1 (Invitrogen) plus 1% FCS. Unless otherwise noted, all treatments with thalidomide and rh-BMP4 and associated controls were done for six hours. Inhibitors were applied once at the beginning of incubation with the exception of LiCl that was added 150 minutes before harvesting the cells for further analyses. Pre-treatment with phenyl-N-t-butylnitrone (PBN; 2 mM; Sigma) was performed for one hour. Incubations with juglone were performed for two hours, if applicable, after a pre-treatment with PBN, Noggin, anti-Dkk1 antibody, LiCl or Gsk3-Inhibitor IX for one hour.
(§3) Cell death in PLBCs, CEFs, MEFs and HEFs was detected by staining with trypan blue (0.1% (w/v) in PBS; Sigma) for 90 seconds. Cells were counted in a counting chamber to determine the ratio of dead to live cells.

[3] = system: primary embryonic fibroblasts of mice (MEFs); test: Cell death by trypan blue staining in MEFs; type: cell-based, mouse
Description: as §2, with “Inhibitors were applied once at the beginning of incubation with the exception of LiCl that was added 150 minutes before harvesting the cells for further analyses. Pre-treatment with phenyl-N-t-butylnitrone (PBN; 2 mM; Sigma) was performed for one hour. Incubations with juglone were performed for two hours, if applicable, after a pre-treatment with PBN, Noggin, anti-Dkk1 antibody, LiCl or Gsk3-Inhibitor IX for one hour.” left out
as §3

chicken embryos = test: Inhibitors counteracting thalidomide-induced limb truncations and microphthalmia in chicken embryos; type: in vivo
Description: Fertilized eggs were purchased from Deindl GmbH, Rietberg-Varensell. They were incubated at 38° C. in a humidified incubator, windowed after one day and staged according to Hamburger and Hamilton (HH stage). Racemic thalidomide (Celgene), thalidomide enantiomers or phthalimide (Sigma) were dissolved in DMSO at 5 mg/ml and further diluted in PBS. Embryos were exposed to drugs by dropping 15 μg-3 mg thalidomide or phthalimide per kg egg weight (about 1-200 μg per embryo) in 50 μl DMSO/PBS as a single dose at HH stages 0-13 onto the embryo. Thalidomide (50 μg) or phthalimide (50 μg) in 10 μl DMSO was injected into the extra-embryonic blood vessels of HH 19 stage embryos. LiCl (99% pure, Sigma) was dissolved in sterile PBS. LiCl (0.1, 0.6 or 3.2 mg) was applied at HH stages 17-19 by dropping 500 μl of a 5 mM, 28 mM or 151 mM LiCl solution onto the embryo. Recombinant Noggin, Dkk1 specific goat IgG (R&D Systems) or serum of non-immunized goats (Sigma) was dissolved in 0.1% BSA/0.01% Fast Green/PBS. Noggin (10 or 100 ng), Dkk1 specific goat IgG (5 or 50 ng) or serum of non-immunized goats (50 ng) was applied to a single embryo at HH stages 17-19 by injecting a 10 μl solution through the extra-embryonic membranes.
The morphology of the limbs was studied in specimens fixed in 5% trichloroacetic acid and stained for cartilage with alcian green as described (3).

[4] = system: primary limb bud cells (PLBCs); test: Cell death by trypan blue staining in PLBCs; type: cell-based, chicken
Description: as §2, §3

β-catenin [5] = test: Sub-cellular localization of β-catenin in CEFs; type: cell-based, chicken; conditions: in the presence of Wnt3a, data not shown
Description: (§4) CEFs or HEFs attached on cover slips were incubated with Wnt3a-conditioned medium including thalidomide or solvent or with control medium for five hours. β-catenin was detected by using a mouse anti-β-catenin antibody (1:500, BD Transduction Laboratories), an anti-mouse Cy3-coupled secondary antibody (Dianova) and fluorescence microscopy. Afterwards, a DAPI staining was performed as a control. Quantification was done by counting the nuclei with a clear fluorescent signal in relation to the number of DAPI-stained nuclei.

[6] = system: primary chicken embryonic fibroblasts (CEFs); test: Cell death by trypan blue staining in CEFs; type: cell-based; conditions: 38.7 μM (10 μg/ml), six hours
Description: as §2, §3

β-catenin [7] = test: Sub-cellular localization of β-catenin in HEFs; type: cell-based, human; conditions: in the presence of Wnt3a; about 70% with Wnt3a alone
Description: as §4

[8] = system: Bmp4 and Dkk1 expression in HEFs; test: sqRT-PCR of Bmp4 and Dkk1 expression in HEFs; type: cell-based, human; conditions: 10 μg/ml, six hours
Description: as §2, §1

[9] = system: limb buds of HH stages 23/24 chicken embryos; test: Whole mount TUNEL staining of limb buds; type: in vivo
Description: TUNEL staining was performed as described (7).

O=C1CCC(N2C(=O)c3ccccc3C2=O)C(=O)N1 (racemic) [thalidomide, 2-(2,6-dioxo-3-piperidyl)isoindole-1,3-dione]
expression level of Bmp2 in limb buds (sqRT-PCR) ([1]; HH stages 23/24 embryos): not significantly affected | expression of Bmp4, Bmp5 and Bmp7 in limb buds (sqRT-PCR) ([1]; HH stages 23/24 embryos): clearly up-regulated | Dkk1 expression in limb buds (sqRT-PCR) ([1]; HH stages 23/24 embryos, in comparison to controls): dramatically enhanced | limb buds with Bmp4 expression dramatically up-regulated (whole mount in situ hybridization) ([1]; HH stages 23/24 embryos, AER, ANZ and PNZ): 20 of 36 | limb buds with Dkk1 expression clearly enhanced (whole mount in situ hybridization) ([1]; HH stages 23/24 embryos, AER, underlying mesenchyme and ANZ): 19 of 64 | limb buds with enhanced Bmp expression and PCD ([1]; in vivo): 55% | limb buds with increased Dkk1 expression ([1]; in vivo): 30% | potential to induce PCD in HEFs [2]: very similar to that in chicken embryonic cells | EC50 ([2]; Homo sapiens, Fibroblast, 6 h, treated for six hours, read-out: EC50 for induction of apoptosis (PCD) in HEFs): 8.9 µM | induction of cell death in MEFs ([3]; 38.7 μM (10 μg/ml), six hours): did not induce cell death | induction of cell death in MEFs with longer incubation times and concentrations up to 100 μg/ml ([3]; up to 100 μg/ml, data not shown): did not significantly induce cell death above controls | embryos with limb truncations, thalidomide-treated control embryos (chicken embryos; control of the anti-Dkk1 antibody experiment (FIG. 7B)): 15% | embryos with microphthalmia, thalidomide-treated control embryos (chicken embryos; in vivo): 23% | embryos with limb truncations, thalidomide treatment (chicken embryos; survived to day seven (FIG. 7A)): 19% | maximum of cell death in PLBCs ([4]; 38.7 μM (10 μg/ml), six to eight hours): about 6 -fold above control | EC50 ([4]; Gallus gallus, 6 h, treated for six hours, read-out: EC50 for induction of PCD in PLBCs): 5 µM | number of CEFs positive for nuclear β-catenin (β-catenin [5]): dramatic reduction | induction of PCD in CEFs compared to controls [6]: six-fold | HEFs positive for nuclear β-catenin (β-catenin [7]): 10% | expression of Bmp4 and Dkk1 in HEFs [8]: induced the expression | limb buds with enlarged ANZ (whole mount TUNEL staining) ([9]; HH stages 23/24 embryos): 22 of 40 | individual limb buds with enhanced PCD (TUNEL) ([9]; chicken, in vivo): 53%
